Laboratory results: patent US12472228B2, “Use of exosome-based delivery of NF-κB inhibitors” (Ilias Biologics Inc., priority 2020, dated 2025)

Tests used:
THP-1 cells = assay: LPS-stimulated THP-1 cells, cytokine secretion (ELISA); format: cell-based, human; settings: JSH-23 50 μM, Exo-srIκB 5×10^6 particles
Experimental: (A) HEK293-NF-κB-luciferase cells (2×10^4 cells) were cultured either with Exo-Naïve or with Exo-srIκB 2×10^5 particles. After 24 h, the cells were treated with 0.5 ng/ml TNF-α for an additional 18 h. Luciferase activities were measured and normalized. (B) Exo-srIκB dose-dependently repressed NF-κB activation in NF-κB-luciferase cells. (C) THP-1 cells (5×10^5 cells) were stimulated with […] LPS and then treated with Exo-srIκBs 5×10^6 particles. The supernatants were collected and assayed for the production of TNF-α and monocyte chemoattractant protein (MCP)-1. […] Cells were harvested into a single-cell suspension and assessed through flow cytometry using specific phycoerythrin (PE)-conjugated antibodies against human intercellular cell adhesion molecule (ICAM)-1.
The TNF-α, IL-8 and MCP-1 levels in supernatants collected from THP-1 and HUVEC cultures were measured using commercial ELISA kits (R&D Systems, Minneapolis, MN, USA), and NF-κB activity in HUVECs was measured using the Trans AM NF-κB p65 kit (Active Motif, Carlsbad, CA, USA). TNF-α, CCL-4/macrophage inflammatory protein (MIP)-1β, IL-6, and IL-1β levels in mouse plasma collected through cardiac puncture at the indicated time points after the high-grade CLP procedure were measured using the Mouse Magnetic Luminex eScreening Assay kit (R&D Systems). […]

[1] = tested on: experimental ischemic AKI model; settings: by lowering inflammatory cytokine expression and macrophages/monocyte accumulation; cited from earlier work
lung IRI model = settings: decreases neutrophil infiltration and pulmonary edema; cited from earlier work

## Cc1ccc(NCCCc2ccccc2)c(N)c1 [JSH-23]
THP-1 cells
  inhibiting LPS-induced NF-κB activation and cytokine production: Exo-srIκB versus JSH-23: comparable effects

## infliximab: anti-TNF-α agent
[1]
  effect in the experimental ischemic AKI model: protective effects

B1: srIκB: non-degradable IκBα protein with mutations at serine residues 32 and 36 (protein, listed as Homo sapiens)
chain: MFQAAERPQEWAMEGPRDGLKKERLLDDRHDAGLDAMKDEEYEQMVKELQEIRLEPQEVPRGSEPWKQQLTEDGDSFLHLAIIHEEKALTMEVIRQVKGDLAFLNFQNNLQQTPLHLAVITNQPEIAEALLGAGCDPELRDFRGNTPLHLACEQGCLASVGVLTQSCTTPHLHSILKATNYNGHTCLHLASIHGYLGIVELLVSLGADVNAQEPCNGRTALHLAVDLQNPDLVSLLLKCGADVNRVTYQGYSPYQLTWGRPSTRIQQQLGQLTLENLQMLPESEDEESYDTESEFTEFTEDELPYDDCVFGGQRLTL
Lung IRI model
  effect in the lung IRI model: proven protective effects
